One assay addresses T1, JAK2 (Homo sapiens, UniProt O60674).
T1 construct: host or cells: baculovirus expression system
In words: Recombinant Human JAK2 Kinase Assay (TRF). It counts as biochemical. As to conditions: JAK2 Kinase Inhibition; read-out: JAK2 Potency. The procedure, abridged: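 TRF read-out: Eu-N1 PY100 anti-phosphotyrosine antibody detects product. Enzyme is baculovirus-expressed JAK2 at 15 ng/ml; substrate is a biotinyl 15-mer peptide bound to Neutravidin-coated wells. Buffer 20 mM HEPES pH 7.2, 0.2 μM ATP, 1 mM MnCl2, 0.1% BSA, 2.5% DMSO final; 20 min, RT.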

A further assay concerns the target T2, ALK (Homo sapiens, UniProt Q9UM73).
T2 construct: host or cells: baculovirus expression system
The assay is described as follows: ALK Kinase Assay (ELISA/TRF, PLC-γ substrate). As to conditions: ALK Kinase Inhibition; read-out: ALK Potency. It counts as biochemical. An outline of the steps: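 First, plates are coated with substrate (phospholipase C-γ, 10 μg/mL, TBS). Next, 30 ng/ml ALK initiates phosphorylation for 15 min at 37° C. Then Eu-N1 PT66 antibody is added for detection, and a nonlinear dose-response fit of percent inhibition yields IC50.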
On the technique in general: ELISA stands for enzyme-linked immunosorbent assay.

This is an account of results in patent US8471005B2 (Cephalon, Inc., priority 2008, dated 2013).

Molecules are shown by their SMILES. A value given as a limit tells only on which side of the number the result lay.

T2 sequence (Q9UM73 19-1620): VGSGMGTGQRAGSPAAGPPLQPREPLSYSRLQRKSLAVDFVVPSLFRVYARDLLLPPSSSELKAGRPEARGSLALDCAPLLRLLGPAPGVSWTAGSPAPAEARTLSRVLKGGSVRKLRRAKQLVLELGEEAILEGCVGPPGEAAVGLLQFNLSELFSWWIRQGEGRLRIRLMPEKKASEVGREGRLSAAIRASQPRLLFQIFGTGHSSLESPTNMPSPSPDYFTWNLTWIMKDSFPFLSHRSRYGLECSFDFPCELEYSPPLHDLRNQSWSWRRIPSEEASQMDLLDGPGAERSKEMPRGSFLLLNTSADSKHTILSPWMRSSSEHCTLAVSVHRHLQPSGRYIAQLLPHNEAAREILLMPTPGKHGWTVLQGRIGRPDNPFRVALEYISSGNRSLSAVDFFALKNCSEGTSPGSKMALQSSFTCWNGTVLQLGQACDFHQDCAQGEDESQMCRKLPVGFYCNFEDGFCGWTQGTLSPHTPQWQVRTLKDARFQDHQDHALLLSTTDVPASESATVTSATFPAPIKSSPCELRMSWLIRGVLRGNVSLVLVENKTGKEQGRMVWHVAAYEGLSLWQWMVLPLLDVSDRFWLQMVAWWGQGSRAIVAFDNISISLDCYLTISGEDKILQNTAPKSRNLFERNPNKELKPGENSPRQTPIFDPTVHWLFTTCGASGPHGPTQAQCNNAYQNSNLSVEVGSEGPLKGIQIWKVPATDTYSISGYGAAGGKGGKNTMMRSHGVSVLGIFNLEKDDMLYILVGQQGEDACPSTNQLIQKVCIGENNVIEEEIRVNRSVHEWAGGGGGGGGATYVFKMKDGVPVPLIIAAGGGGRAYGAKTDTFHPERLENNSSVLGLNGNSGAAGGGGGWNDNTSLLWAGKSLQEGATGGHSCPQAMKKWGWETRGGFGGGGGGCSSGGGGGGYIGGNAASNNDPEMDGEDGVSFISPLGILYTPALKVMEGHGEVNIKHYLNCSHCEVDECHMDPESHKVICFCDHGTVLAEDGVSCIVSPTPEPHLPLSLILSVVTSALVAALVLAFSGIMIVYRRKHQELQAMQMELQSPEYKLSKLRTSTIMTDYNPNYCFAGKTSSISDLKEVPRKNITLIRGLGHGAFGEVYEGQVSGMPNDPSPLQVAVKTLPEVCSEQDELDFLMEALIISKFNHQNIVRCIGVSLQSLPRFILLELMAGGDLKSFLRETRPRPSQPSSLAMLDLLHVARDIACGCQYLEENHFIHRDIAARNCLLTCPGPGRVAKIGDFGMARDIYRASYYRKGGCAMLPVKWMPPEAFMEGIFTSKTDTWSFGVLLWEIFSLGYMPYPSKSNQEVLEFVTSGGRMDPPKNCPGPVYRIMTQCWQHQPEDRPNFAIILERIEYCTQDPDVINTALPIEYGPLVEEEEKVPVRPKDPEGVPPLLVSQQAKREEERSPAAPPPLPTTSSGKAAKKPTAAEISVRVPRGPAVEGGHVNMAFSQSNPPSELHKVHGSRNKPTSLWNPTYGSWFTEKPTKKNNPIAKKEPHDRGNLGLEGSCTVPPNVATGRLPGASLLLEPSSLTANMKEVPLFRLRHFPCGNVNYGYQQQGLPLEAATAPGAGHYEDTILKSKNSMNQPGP
T1 sequence (O60674 whole entry): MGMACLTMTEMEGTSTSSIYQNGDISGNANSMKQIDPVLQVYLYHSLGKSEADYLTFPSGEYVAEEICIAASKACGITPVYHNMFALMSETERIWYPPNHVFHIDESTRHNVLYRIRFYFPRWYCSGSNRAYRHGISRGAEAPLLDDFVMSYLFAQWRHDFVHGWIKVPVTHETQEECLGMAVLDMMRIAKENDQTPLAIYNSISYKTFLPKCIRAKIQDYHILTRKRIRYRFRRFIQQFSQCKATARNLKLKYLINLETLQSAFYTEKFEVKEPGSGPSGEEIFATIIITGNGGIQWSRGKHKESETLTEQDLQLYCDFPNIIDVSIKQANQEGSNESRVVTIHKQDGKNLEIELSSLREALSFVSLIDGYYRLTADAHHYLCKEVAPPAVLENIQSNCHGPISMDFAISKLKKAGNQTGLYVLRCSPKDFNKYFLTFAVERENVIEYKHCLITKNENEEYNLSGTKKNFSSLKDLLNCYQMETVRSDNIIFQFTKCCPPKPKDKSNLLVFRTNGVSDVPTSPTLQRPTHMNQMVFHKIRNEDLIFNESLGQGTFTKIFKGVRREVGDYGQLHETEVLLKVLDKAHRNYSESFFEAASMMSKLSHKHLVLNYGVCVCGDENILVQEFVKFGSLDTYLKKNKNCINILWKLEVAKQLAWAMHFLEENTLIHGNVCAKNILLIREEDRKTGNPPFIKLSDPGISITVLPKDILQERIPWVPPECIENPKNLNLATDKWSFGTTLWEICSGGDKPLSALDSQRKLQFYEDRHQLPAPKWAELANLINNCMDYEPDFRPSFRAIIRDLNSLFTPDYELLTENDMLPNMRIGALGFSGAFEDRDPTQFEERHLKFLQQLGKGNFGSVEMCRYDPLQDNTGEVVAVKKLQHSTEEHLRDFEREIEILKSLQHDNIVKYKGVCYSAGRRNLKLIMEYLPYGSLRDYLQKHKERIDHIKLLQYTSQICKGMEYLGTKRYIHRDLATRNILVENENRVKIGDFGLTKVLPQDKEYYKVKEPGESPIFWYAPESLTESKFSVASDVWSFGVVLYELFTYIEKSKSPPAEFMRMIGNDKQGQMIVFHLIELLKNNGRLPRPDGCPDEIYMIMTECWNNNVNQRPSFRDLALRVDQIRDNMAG

For `CC(C)(O)CN1CCN(c2ccc(Nc3ncc4ccc(-c5cccc(Cl)c5)n4n3)cc2)CC1` [Example 223, 1-(4-{4-[7-(3-Chloro-phenyl)-pyrrolo[2,1-f][1,2,4]triazin-2-ylamino]-phenyl}-piperazin-1-yl)-2-methyl-propan-2-ol], the IC50 at JAK2 and at ALK was less than 100 nM each time.
Regarding `COc1cc(N2CCN(C3CCN(C)CC3)CC2)ccc1Nc1ncc2ccc(-c3ccccc3OC)n2n1` [Example 231, {2-Methoxy-4-[4-(1-methyl-piperidin-4-yl)-piperazin-1-yl]-phenyl}-[7-(2-methoxy-phenyl)-pyrrolo[2,1-f][1,2,4]triazin-2-yl]-amine], the IC50 on JAK2 and on ALK was less than 100 nM each time.
On to `COc1cc(N2CCCC(N3CCN(C(C)=O)CC3)C2)ccc1Nc1ncc2ccc(-c3ccccc3OC)n2n1` (stereo not drawn) [Example 232, 1-[4-(1-{3-Methoxy-4-[7-(2-methoxy-phenyl)-pyrrolo[2,1-f][1,2,4]triazin-2-ylamino]-phenyl}-piperidin-3-yl)-piperazin-1-yl]-ethanone], for which the IC50 at JAK2 and at ALK was less than 100 nM throughout.
Take `COc1cc(N2CCCC(N3CCN(S(C)(=O)=O)CC3)C2)ccc1Nc1ncc2ccc(-c3ccccc3OC)n2n1` (stereo not drawn) [Example 233, {4-[3-(4-Methanesulfonyl-piperazin-1-yl)-piperidin-1-yl]-2-methoxy-phenyl}-[7-(2-methoxy-phenyl)-pyrrolo[2,1-f][1,2,4]triazin-2-yl]-amine]: the IC50 on JAK2 and on ALK was less than 100 nM in each case.
Consider `COc1cc(N2CCCC(N3CCN(C(=O)OCc4ccccc4)CC3)C2)ccc1Nc1ncc2ccc(-c3ccccc3OC)n2n1` (stereo not drawn) [Example 234, 4-(1-{3-Methoxy-4-[7-(2-methoxy-phenyl)-pyrrolo[2,1-f][1,2,4]triazin-2-ylamino]-phenyl}-piperidin-3-yl)-piperazine-1-carboxylic acid benzyl ester], for which the values for the IC50 on JAK2 and at ALK were 1000 to 10000 nM and 100 to 1000 nM, respectively.
For `COc1cc(N2CCCC(N3CCN(C)CC3)C2)ccc1Nc1ncc2ccc(-c3ccccc3OC)n2n1` (stereo not drawn) [Example 235, {2-Methoxy-4-[3-(4-methyl-piperazin-1-yl)-piperidin-1-yl]-phenyl}-[7-(2-methoxy-phenyl)-pyrrolo[2,1-f][1,2,4]triazin-2-yl]-amine], the IC50 on JAK2 is 100 to 1000 nM; on ALK it was less than 100 nM.
Regarding `COc1cc(N2CCC(N3CCN(C)CC3)CC2)ccc1Nc1ncc2ccc(-c3cccnc3)n2n1` [Example 241], the IC50 was 100 to 1000 nM on JAK2 and less than 100 nM at ALK.
Turning to `CNC(=O)c1ccc(-c2ccc3cnc(Nc4ccc(N5CCC(N6CCN(C)CC6)CC5)cc4OC)nn23)cc1` [Example 242, 4-(2-{2-Methoxy-4-[4-(4-methyl-piperazin-1-yl)-piperidin-1-yl]-phenylamino}-pyrrolo[2,1-f][1,2,4]triazin-7-yl)-N-methyl-benzamide], the IC50 on JAK2 and at ALK was less than 100 nM each time.
For `COc1cc(N2CCC(N3CCN(C)CC3)CC2)ccc1Nc1ncc2ccc(-c3ccccc3OC)n2n1` [Example 251, {2-Methoxy-4-[4-(4-methyl-piperazin-1-yl)-piperidin-1-yl]-phenyl}-[7-(2-methoxy-phenyl)-pyrrolo[2,1-f][1,2,4]triazin-2-yl]-amine], the IC50 at JAK2 and at ALK was less than 100 nM each time.
Regarding `CCN1CCOC(c2ccc(Nc3ncc4ccc(-c5ccccc5OC)n4n3)cc2)C1` (stereo not drawn) [Example 252, [4-(4-Ethyl-morpholin-2-yl)-phenyl]-[7-(2-methoxy-phenyl)-pyrrolo[2,1-f][1,2,4]triazin-2-yl]-amine], the IC50 on JAK2 and on ALK was less than 100 nM throughout.
With `CCN1CCOC(c2ccc(Nc3ncc4ccc(-c5cc(Cl)ccc5OC)n4n3)cc2)C1` (stereo not drawn) [Example 253, [7-(5-Chloro-2-methoxy-phenyl)-pyrrolo[2,1-f][1,2,4]triazin-2-yl]-[4-(4-ethyl-morpholin-2-yl)-phenyl]-amine], the IC50 on JAK2 and on ALK was less than 100 nM in each case.
On to `c1ccc2c(c1)cc1cnc(Nc3ccc(N4CCOCC4)cc3)nn12` [Example 261, (4-Morpholin-4-yl-phenyl)-[1,2,4]triazino[1,6-a]indol-2-yl-amine], for which the results for the IC50 on JAK2 and on ALK were less than 100 nM and 100 to 1000 nM, respectively.
In the same order, the values of `COc1cc(N2CCC(N3CCN(C)CC3)CC2)ccc1Nc1ncc2cc3ccccc3n2n1` [Example 262, {2-Methoxy-4-[4-(4-methyl-piperazin-1-yl)-piperidin-1-yl]-phenyl}-[1,2,4]triazino[1,6-a]indol-2-yl-amine] are 1000 to 10000 nM and 100 to 1000 nM.
In the same order, the values of `CN1CCN(c2ccc(Nc3ncc4cc5ccccc5n4n3)cc2)CC1` [Example 263, [4-(4-Methyl-piperazin-1-yl)-phenyl]-[1,2,4]triazino[1,6-a]indol-2-yl-amine] are less than 100 nM and 100 to 1000 nM.
In the case of `CN1CCN(C2CCN(c3ccc(Nc4ncc5cc6ccccc6n5n4)cc3)CC2)CC1` [Example 264, {4-[4-(4-Methyl-piperazin-1-yl)-piperidin-1-yl]-phenyl}-[1,2,4]triazino[1,6-a]indol-2-yl-amine], the IC50 at JAK2 is less than 100 nM; on ALK, 1000 to 10000 nM.
For the compound `CC1(C)CCC(=O)Nc2cc(Nc3ncc4cc5ccccc5n4n3)ccc21` [Example 265, 5,5-Dimethyl-8-([1,2,4]triazino[1,6-a]indol-2-ylamino)-1,3,4,5-tetrahydro-benzo[b]azepin-2-one], the IC50 was less than 100 nM at JAK2 and greater than 10000 nM at ALK.
Consider `COc1cc(N2CCOCC2)ccc1Nc1ncc2cc3ccccc3n2n1` [Example 266, (2-Methoxy-4-morpholin-4-yl-phenyl)-[1,2,4]triazino[1,6-a]indol-2-yl-amine], for which the IC50 at JAK2 was greater than 10000 nM; on ALK it was 1000 to 10000 nM.
For the compound `COc1cc(N2CCN(C)CC2)ccc1Nc1ncc2cc3ccccc3n2n1` [Example 267, [2-Methoxy-4-(4-methyl-piperazin-1-yl)-phenyl]-[1,2,4]triazino[1,6-a]indol-2-yl-amine], the results for the IC50 on JAK2 and at ALK were 1000 to 10000 nM and 100 to 1000 nM, respectively.
As for `COc1ccc2c(c1)cc1cnc(Nc3ccc(N4CCOCC4)cc3)nn12` [Example 268, (7-Methoxy-[1,2,4]triazino[1,6-a]indol-2-yl)-(4-morpholin-4-yl-phenyl)-amine], the values for the IC50 at JAK2 and at ALK were less than 100 nM and greater than 10000 nM, respectively.
Regarding `COc1ccc2c(c1)cc1cnc(Nc3ccc(N4CCOCC4)cc3OC)nn12` [Example 269, (2-Methoxy-4-morpholin-4-yl-phenyl)-(7-methoxy-[1,2,4]triazino[1,6-a]indol-2-yl)-amine], the IC50 on JAK2 and on ALK was 1000 to 10000 nM in each case.
Consider `c1ccc(Nc2ncc3cc4ccccc4n3n2)cc1` [Example 270, Phenyl-[1,2,4]triazino[1,6-a]indol-2-yl-amine], for which the results for the IC50 on JAK2 and on ALK were 100 to 1000 nM and greater than 10000 nM, respectively.
In the case of `Clc1cccc(Nc2ncc3cc4ccccc4n3n2)c1` [Example 271, (3-Chloro-phenyl)-[1,2,4]triazino[1,6-a]indol-2-yl-amine], the IC50 at JAK2 is 100 to 1000 nM; at ALK it was greater than 10000 nM.
As to `COc1cccc(Nc2ncc3cc4ccccc4n3n2)c1` [Example 272, (3-Methoxy-phenyl)-[1,2,4]triazino[1,6-a]indol-2-yl-amine], the IC50 at JAK2 is less than 100 nM; at ALK, greater than 10000 nM.
Regarding `CN(C)S(=O)(=O)c1cccc(Nc2ncc3cc4ccccc4n3n2)c1` [Example 273, N,N-Dimethyl-3-([1,2,4]triazino[1,6-a]indol-2-ylamino)-benzenesulfonamide], the figures for the IC50 on JAK2 and on ALK were 100 to 1000 nM and greater than 10000 nM, respectively.
In the same order, the values of `COc1ccccc1-c1ccc2cnc(Nc3ccc(C(C)C)c(NC(C)=O)c3)nn12` [Example 301, N-{2-Isopropyl-5-[7-(2-methoxy-phenyl)-pyrrolo[2,1-f][1,2,4]triazin-2-ylamino]-phenyl}-acetamide] are less than 100 nM and 100 to 1000 nM.
On to `CC(=O)Nc1cc(Nc2ncc3ccc(-c4cccc(Cl)c4)n3n2)ccc1C(C)C` [Example 303, N-{5-[7-(3-Chloro-phenyl)-pyrrolo[2,1-f][1,2,4]triazin-2-ylamino]-2-isopropyl-phenyl}-acetamide], for which the IC50 on JAK2 was less than 100 nM; on ALK it was 1000 to 10000 nM.
In the same order, the values of `CC(=O)Nc1cc(Nc2ncc3ccc(-c4cccnc4)n3n2)ccc1C(C)C` [Example 304, N-[2-Isopropyl-5-(7-pyridin-3-yl-pyrrolo[2,1-f][1,2,4]triazin-2-ylamino)-phenyl]-acetamide] are less than 100 nM and 1000 to 10000 nM.
Turning to `COc1ccc(Cl)cc1-c1ccc2cnc(Nc3ccc(C(C)(C)C)c(NC(C)=O)c3)nn12` [Example 306, N-{2-tert-Butyl-5-[7-(5-chloro-2-methoxy-phenyl)-pyrrolo[2,1-f][1,2,4]triazin-2-ylamino]-phenyl}-acetamide], the IC50 on JAK2 is less than 100 nM; at ALK, 100 to 1000 nM.
`CC(=O)Nc1cc(Nc2ncc3ccc(-c4cccc(Cl)c4)n3n2)ccc1C(C)(C)C` [Example 307, N-{2-tert-Butyl-5-[7-(3-chloro-phenyl)-pyrrolo[2,1-f][1,2,4]triazin-2-ylamino]-phenyl}-acetamide]: the IC50 on JAK2 is less than 100 nM; at ALK, greater than 10000 nM.
In the same order, the values of `CC(=O)Nc1cc(Nc2ncc3ccc(-c4cccnc4)n3n2)ccc1C(C)(C)C` [Example 308, N-[2-tert-Butyl-5-(7-pyridin-3-yl-pyrrolo[2,1-f][1,2,4]triazin-2-ylamino)-phenyl]-acetamide] are less than 100 nM and 100 to 1000 nM.
